Measurements as given in patent US20040122209A1, “Products for regulating the degradation of collagen and methods for identifying same” (Shriners Hospital For Children, priority 2002, published 2004).

Key:
Assay type in all cases: cell-based
[1] = tested on: normal human adult articular cartilage explants; test: Proteoglycan release and content (DMMB dye assay) in human explant culture
Procedure: Cumulative proteoglycan (mainly aggrecan) released into medium was calculated by summation of proteoglycan contents in medium at each medium change of every four days. Cartilage explants were maintained for up to 16 days cultured with or without CB12-II at 10 μM. Sulfated glycosaminoglycan in medium was assayed by dimethylmethylene blue (DMMB) method. Data are expressed as μg GAG release per wet weight of cartilage.
The cartilages were prepared as previously described (Dahlberg, L. et al. (2000) supra. In brief, the cartilage samples were washed three times with basal culture medium containing Dulbecco's modified Eagle's medium (DMEM; Gibco BRL, Life Technologies, Grand Island, N.Y.) with 20 mM HEAPS buffer (pH 7.4) (Gibco BRL), 45 mM NaHCO3, 100 units/ml penicillin, 100 μg/ml streptomycin and 150 μg/ml gentamycin sulphate (Medium A). Full-depth cartilage slices from a single area, around 20 mm×20 mm were cut vertical to the articular surface and then into cubes of approximately 2 mm×2 mm (5-7 cubes were randomly obtained and wet weights about 50-70 mg/well determined).
The cartilage was assigned to 48 well plate (ca 40 mg/well) and kept in Medium A supplemented with 50 μg/ml ascorbic acid, 0.1 mg/bovine serum albumin, 50 μg/ml insulin, 5.0 μg/ml and 5.0 μg/ml sodium DMEM alone at 37° C. in 95% air/5% CO2. The cartilage was precultured for 2 days and medium was changed at day 0. […]
In order to show the specificity of the peptide fragments of one embodiment on degradation of type II collagen as compared with proteoglycan, primarily aggrecan, sulphated glycosaminoglycan (GAG) content was determined in both the α-chymotrypsin and proteinase K digests for total proteoglycan (predominantly aggrecan) content in cell pellets, cartilage explants and also in conditioned media. […]
In order to examine any effects of SP on proteoglycan catabolism in normal human articular cartilage, cumulative proteoglycan (mainly aggrecan) release into medium and proteoglycan content in cartilage were determined by DMMB (1,9-dimethylmethyleneblue) dye assay.

[2] = tested on: MMP-1; test: ELISA for MMP-1 in conditioned medium of human chondrocytes; settings: 48 hours; CB12-II 50 μM, TNF-α 50 ng/ml
Procedure: (§1) First-passaged normal human chondrocytes isolated by the method described above and cultured at high density (2×10^5 cells/cm^2) were trypsinized and resuspended in Medium A containing 1% FCS at a density of 10^6 cells/ml. Then, 200 μl of the cell suspension was each plated onto round-bottomed 96-well culture plate. On the next day after plating, CB12-II at 50 μM, USP at 50 μM, and TNF-α at 50 ng/ml were added to the culture media, and the culture was maintained for 24-48 hours. Conditioned media were collected and subjected to ELISA assay. The ELISA kits (BIOTRAK) for MMP-1 and MMP-13 were purchased from Amersham Pharmacia Biotech (Piscataway, N.J.). Measurement range was 6.25-100 ng/ml for MMP-1 and 0.094-3 ng/ml for MMP-13. Sensitivity for the assay was 1.7 ng/ml for MMP-1 and 0.7 ng/ml for MMP-13.
(§2) Protein levels of MMP-1 and MMP-13 were also tested by incubating isolated human chondrocytes for 48 hours in high density culture (10^6 cells/ml) with CB12-II, negative control peptide USP, or cytokine TNF-α, as discussed above. MMP-1 and MMP-13 secretion into medium from the cells was measured using ELISA (see FIGS. 9A and 9B).

[3] = tested on: MMP-13; test: ELISA for MMP-13 in conditioned medium of human chondrocytes; settings: 48 hours; CB12-II 50 μM, TNF-α 50 ng/ml
Procedure: as §1, §2

[4] = tested on: isolated human chondrocytes; test: Cell attachment assay (total cellular hexosaminidase); settings: preliminary studies
Procedure: Ninety six-well, non-tissue culture plates were coated with a peptide fragment of the invention (CB12-II), a negative control peptide (USP), or human fibronectin in PBS at various concentrations overnight at room temperature in the laminar flow hood. […] Optimal binding was obtained with concentration of 10 μg/ml for CB12-II. After the plates were washed once with PBS, additional protein binding sites in the plate wells were blocked with 5% heat-denatured BSA in PBS at 37° […] for 1 hour. Freshly isolated human chondrocytes were recovered for 2 hours as described above, and then added to on substrate-coated plates at the density of 1×10^7 cells/ml (0.5-2×10^6 cells/well) and incubated at 37° C. for 1 hour. The chondrocyte suspensions were preincubated with 5 μg/ml anti-integrin blocking antibodies (from Chemicon): al (clone CB12), a2 (clone P1E6), a5, (clone DID6), α1 (clone 6S6), α2 (cloneP4H9), α3 (clone 25EW), α2β1 (clone BHA2.1), and α5β1 (clone JBS5) at 4° C. for 30 min prior to adding cells to the pre-coated wells for 1 hour at 37° C. Unattached cells were removed and the wells were washed gently twice with PBS. Bound cells were then quantitated by measuring total cellular hexosaminidase as described (36, 37). […] After a 6-h incubation, 90 μl of 50 mM glycine, 5 mM EDTA, pH 10.4 was added, and the absorbance was read at 405 nm.

## ERGPPGPQGARGFPGTPGLPGVK [CB12-II]
[1]; 10 μM, up to 16 days
  cumulative proteoglycan release, SP-treated versus control specimens: no significant difference
  proteoglycan release into medium: did not induce proteoglycan release
[1]; data not shown
  proteoglycan content in cartilage explants: nor did it decrease proteoglycan content
[2]
  MMP-1 secretion into medium versus no peptide and negative control peptide (USP): significantly higher
[3]
  MMP-13 secretion into medium versus no peptide and negative control peptide (USP): significantly higher
[4]
  coating concentration giving optimal binding of chondrocytes: 10 µg/mL
